# Reference: patent publication US9315475B2 (MERCK SHARP & DOHME CORP., priority 2011, dated 2016)
# How the values were obtained:
# wildtype HIV-1 protease = target: T1, wildtype HIV-1 protease (Human immunodeficiency virus type 1 group M subtype B, UniProt P04585); assay: Assay for inhibition of microbial expressed HIV protease (Pepcleav); assay type: biochemical; conditions: wild type HIV-1 protease expressed in E. coli, peptide substrate, pH 5.5; mean of at least two independent experiments; read-out: Pepcleav
# T1 construct: the wildtype HIV-1 protease (which was expressed in Escherichia coli); made in house; host or cells: Escherichia coli
# Procedure, shortened: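 Cleavage of 400 μM peptide substrate Val-Ser-Gln-Asn-(βnaphthyl)Ala-Pro-Ile-Val by 20 pM wild-type enzyme (E. coli-expressed) ran 1 h at 30 °C after 30 min inhibitor preincubation, pH 5.5 acetate buffer. Inhibition derived from product peak area by C18 LC with multiple-reaction-monitoring MS after formic acid quench.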
# HIV-1 (H9IIIB strain) = assay: Antiviral acute infection assay in cell culture (Spread); assay type: cell-based; conditions: Human immunodeficiency virus 1, T-lymphoid, HIV-1 H9IIIB infection of MT-4 human T-lymphoid cells in 10% FBS; mean of at least two independent experiments
# Excerpt: Antiviral Assays in Cell Culture (“Spread”)
# Acute Infection Assay (“Spread”) data were generated using HIV-1 (H9IIIB strain) infection of MT-4 human T-lymphoid cells in 10% FBS, and according to the methods disclosed by J. P. Vacca et al, “L-735,524: An orally bioavailable human immunodeficiency virus type 1 protease inhibitor,” Proc. Natl. Acad. Sci. USA, Vol. 91, pp. 4096-4100 (April 1994).
Structure (SMILES),IC50 (wildtype HIV-1 protease),EC50 (HIV-1 (H9IIIB strain))
"N[C@H](C(=O)Nc1cc(F)cc(F)c1OC[C@@H]1CN[C@H](COC(=O)NCC(F)(F)F)CO1)C(c1ccc(F)cc1)c1ccc(F)cc1 [Example 245, N-(3,5-difluoro-2-{[(2S,5S)-5-({[(2,2,2-trifluoroethyl)carbamoyl]oxy}methyl)morpholin-2-yl]methoxy}phenyl)-4-fluoro-β-(4-fluorophenyl)-L-phenylalaninamide]",16 nM,360 nM
"N[C@H](C(=O)Nc1cncc(F)c1CC[C@@H]1CN[C@H](COC(=O)NCC(F)(F)F)CO1)[C@H](c1ccc(F)cc1)c1ccc(OC(F)(F)F)cc1 [Example 246, (βS)-β-(4-fluorophenyl)-N-(5-fluoro-4-{2-[(2R,5S)-5-({[(2,2,2-trifluoroethyl)carbamoyl]oxy}methyl)morpholin-2-yl]ethyl}pyridin-3-yl)-O-(trifluoromethyl)-L-tyrosinamide]",13 nM,390 nM
"N[C@H](C(=O)Nc1cc(F)cc(F)c1CC[C@@H]1CN[C@H](COC(=O)NCC(F)(F)F)CO1)C(c1ccc(F)cc1)c1ccc(F)cc1 [Example 247, N-(3,5-difluoro-2-{2-[(2R,5S)-5-({[(2,2,2-trifluoroethyl)carbamoyl]oxy}methyl)morpholin-2-yl]ethyl}phenyl)-4-fluoro-β-(4-fluorophenyl)-L-phenylalaninamide]",12 nM,260 nM
"CCOCCNC(=O)OC[C@@H]1CO[C@H](CCc2c(F)cncc2NC(=O)[C@@H](N)C(c2ccc(F)cc2)c2ccc(F)cc2)CN1 [Example 248, N-(4-{2-[(2R,5S)-5-({[(2-ethoxyethyl)carbamoyl]oxy}methyl)morpholin-2-yl]ethyl}-5-fluoropyridin-3-yl)-4-fluoro-β-(4-fluorophenyl)-L-phenylalaninamide]",9.8 nM,55 nM
"N[C@H](C(=O)Nc1cncc(F)c1CC[C@@H]1CN[C@H](CO)CO1)[C@@H](c1ccccc1)c1ccnc2ccccc12 [Example 249, (βS)-N-(5-fluoro-4-{2-[(2R,5R)-5-(hydroxymethyl)morpholin-2-yl]ethyl}pyridin-3-yl)-β-quinolin-4-yl-L-phenylalaninamide]",9.4 nM,3000 nM
"COc1ccc([C@H](c2ccc(F)cc2)[C@H](N)C(=O)Nc2cncc(F)c2CC[C@@H]2CN[C@H](COC(=O)NCC(F)(F)F)CO2)cc1 [Example 250, (βR)-β-(4-fluorophenyl)-N-(5-fluoro-4-{2-[(2R,5S)-5-({[(2,2,2-trifluoroethyl)carbamoyl]oxy}methyl)morpholin-2-yl]ethyl}pyridin-3-yl)-O-methyl-L-tyrosinamide]",8.3 nM,63 nM
"N[C@H](C(=O)Nc1cccc(F)c1CC[C@@H]1CN[C@H](COC(=O)NCC(F)(F)F)CO1)[C@@H](c1ccc(F)cc1)c1cc(F)cc(F)c1 [Example 251, (βS)-3,5-difluoro-β-(4-fluorophenyl)-N-(3-fluoro-2-{2-[(2R,5S)-5-({[(2,2,2-trifluoroethyl)carbamoyl]oxy}methyl)morpholin-2-yl]ethyl}phenyl)-L-phenylalaninamide]",8.2 nM,32 nM
"CN1CCC(NC(=O)OC[C@@H]2CO[C@H](CCc3c(F)cncc3NC(=O)[C@@H](N)C(c3ccc(F)cc3)c3ccc(F)cc3)CN2)C1=O (stereo partly drawn) [Example 252, 4-fluoro-N-(5-fluoro-4-{2-[(2R,5S)-5-({[(1-methyl-2-oxopyrrolidin-3-yl)carbamoyl]oxy}methyl)morpholin-2-yl]ethyl}pyridin-3-yl)-β-(4-fluorophenyl)-L-phenylalaninamide]",7.7 nM,160 nM
"N[C@H](C(=O)Nc1cncc(F)c1CC[C@@H]1CN[C@H](COC(=O)NC2CCCOC2)CO1)C(c1ccc(F)cc1)c1ccc(F)cc1 (stereo partly drawn) [Example 253, 4-fluoro-β-(4-fluorophenyl)-N-(5-fluoro-4-{2-[(2R,5S)-5-{[(tetrahydro-2H-pyran-3-ylcarbamoyl)oxy]methyl}morpholin-2-yl]ethyl}pyridin-3-yl)-L-phenylalaninamide]",7.7 nM,24 nM
"N[C@H](C(=O)Nc1cncc(F)c1CC[C@@H]1CN[C@H](COC(=O)NC[C@H]2CCC(=O)N2)CO1)C(c1ccc(F)cc1)c1ccc(F)cc1 [Example 254, 4-fluoro-N-(5-fluoro-4-{2-[(2R,5S)-5-{[({[(2R)-5-oxopyrrolidin-2-yl]methyl}carbamoyl)oxy]methyl}morpholin-2-yl]ethyl}pyridin-3-yl)-β-(4-fluorophenyl)-L-phenylalaninamide]",7.6 nM,1100 nM
"N[C@H](C(=O)Nc1cncc(F)c1CC[C@@H]1CN[C@H](COC(=O)NCc2ccno2)CO1)C(c1ccc(F)cc1)c1ccc(F)cc1 [Example 255, 4-fluoro-N-(5-fluoro-4-{2-[(2R,5S)-5-({[(isoxazol-5-ylmethyl)carbamoyl]oxy}methyl)morpholin-2-yl]ethyl}pyridin-3-yl)-β-(4-fluorophenyI)-L-phenylalaninamide]",6.4 nM,210 nM
"COc1ccc([C@@H](c2ccccc2)[C@H](N)C(=O)Nc2cncc(F)c2CC[C@@H]2CN[C@H](COC(=O)NCC(F)(F)F)CO2)cc1 [Example 256, (βR)-N-(5-fluoro-4-{2-[(2R,5S)-5-({[(2,2,2-trifluoroethyl)carbamoyl]oxy}methyl)morpholin-2-yl]ethyl}pyridin-3-yl)-O-methyl-β-phenyl-L-tyrosinamide]",5.7 nM,100 nM
"N[C@H](C(=O)Nc1cccc(F)c1CC[C@@H]1CN[C@H](COC(=O)NCC(F)(F)F)CO1)[C@H](c1ccc(F)cc1)c1cccc(Cl)c1 [Example 257, (βR)-β-(3-chlorophenyl)-4-fluoro-N-(3-fluoro-2-{2-[(2R,5S)-5-({[(2,2,2-trifluoroethyl)carbamoyl]oxy}methyl)morpholin-2-yl]ethyl}phenyl)-L-phenylalaninamide]",5.1 nM,51 nM
"NC(=O)OC[C@@H]1CO[C@H](COc2c(F)cc(F)cc2NC(=O)[C@@H](N)C(c2ccc(F)cc2)c2ccc(F)cc2)CN1 [Example 258, N-[2-({(2S,5S)-5-[(carbamoyloxy)methyl]morpholin-2-yl}methoxy)-3,5-difluorophenyl]-4-fluoro-β-(4-fluorophenyl)-L-phenylalaninamide]",5 nM,260 nM
"N[C@H](C(=O)Nc1cncc(F)c1CC[C@@H]1CN[C@H](COC(=O)NCC(F)(F)F)CO1)[C@H](c1ccccc1)c1ccc(F)c(F)c1 [Example 259, (βR)-β-(3,4-difluorophenyl)-N-(5-fluoro-4-{2-[(2R,5S)-5-({[(2,2,2-trifluoroethyl)carbamoyl]oxy}methyl)morpholin-2-yl]ethyl}pyridin-3-yl)-L-phenylalaninamide]",5 nM,66 nM
"N[C@H](C(=O)Nc1c(Cl)cccc1OC[C@@H]1CN[C@H](COC(=O)NCC(F)(F)F)CO1)C(c1ccc(F)cc1)c1ccc(F)cc1 [Example 260, N-(2-chloro-6-{[(2S,5S)-5-({[(2,2,2-trifluoroethyl)carbamoyl]oxy}methyl)morpholin-2-yl]methoxy}phenyl)-4-fluoro-β-(4-fluorophenyl)-L-phenylalaninamide]",4.8 nM,190 nM
